This is an account of results in patent publication US11633370B2, “Use of scavengers of reactive gamma-ketoaldehydes to extend cell lifespan and healthspan” (Vanderbilt University, priority 2016, dated 2023).

In one data set the test system is VC199 SIR-2.1 mutants. Description: Oxygen consumption rate of whole worms, VC199. In kind it is in vivo, C. elegans. Conditions: whole worms over several days; p>0.05. The source says: Mitochondria lie at the center of aging biology, playing crucial roles in energy production, carbon substrate metabolism, apoptosis regulation, and redox balance and signaling. Since sirtuins play a major role in regulating mitochondrial function, the present inventors next wanted to investigate whether SA was exerting any of its effects via protection of mitochondrial processes. To investigate SA's effects on mitochondrial respiration, the present inventors administered SA to WT N2 (FIG. 5A) and non-functional SIR-2.1 mutant worms (FIG. 5B) and measured oxygen consumption rate (OCR) in whole worms over several days. […] The present inventors also examined the effect of SA treatment on mitochondrial DNA (mtDNA) integrity.
Oxygen consumption rate for whole C. elegans was measured using a Seahorse Bioscience XF^e96 Analyzer. Worms were harvested from Day 0, 2, and 15 colonies maintained on FUDR containing SA-OP50-seeded NGM plates by washing in M9 medium, followed by floatation on an ice-cold 60% w/v sucrose gradient to segregate clean bacteria-free adult worms from bacterial debris. Worms were seeded at 1,000 worms/well in M9. After 20 min equilibration, a 2-min measurement was performed to obtain basal OCR for all experimental conditions and strains.

Data set [1] relates to intact cells exposed to hydrogen peroxide. Conditions: SA pre-treatment, vehicle control 95% cell death; cited from earlier work.
In data set [2] the test system is N2 WT C. elegans. The data set can be described thus: Longevity assay, wild-type N2 worms. In kind it is in vivo. The following applies: for increase in median lifespan: continuous from Day 1 of adulthood until natural death, versus 16 days; for median lifespan: control 16 days. Here is the method: C. elegans strains were cultured at 20° C. on standard nematode growth media (NGM) agar plates seeded with Escherichia coli strain NA22. The following strains were used in this work: wild-type C. elegans Bristol strain (N2), sir-2.1(ok434) IV, F19F10.5(ok888) V, and daf-16(mu86). Strains were obtained from the Caenorhabditis Genetics Center (University of Minnesota, St. Paul, Minn.). For generating cultures of 15-day-old (Day 15) adult worms, synchronized late-stage L4s/early young adult worms were transferred to peptone enriched 15 cm plates containing UV-irradiated OP50 E. coli and 0.12 mM 5-fluoro-2′-deoxyuridine (FUDR) to inhibit progeny production[88] with or without drug until harvest.
Nematodes grown on NGM-agar plates containing 0.5% peptone, were harvested, and eggs were isolated by alkaline hypochlorite with 0.5 N NaOH, 1% hypochlorite; 8 min at 23° C. The recovered eggs were rinsed in M9 buffer and placed on fresh agar plates seeded with E. coli strain OP50 and maintained at 20° C. until late-L4/young adult stage. After the late L4/young adult molt, worms were transferred to peptone enriched 15 cm plates containing 0.12 mM FUDR, OP50 E. coli, and varying concentrations of SA. Salicylamine drug plates were made fresh before transfer by spreading SA on top of the agar and plates were allowed to dry. E. coli strain OP50 was exposed to UV radiation for 30 minutes to kill the bacteria before seeding onto the SA-FUDR NGM agar plates. Worms were exposed to SA throughout its life until harvest by transferring worms to fresh SA-FUDR-OP50 NGM plates every other day.
Survival cultures were grown on 60-mm agar plates; after the late-stage L4/young adult molt, approximately 100 adults were transferred onto SA-OP50-seeded NGM plates. Salicylamine drug plates were made fresh before transfer by spreading SA on top of the agar. Plates were allowed to dry before seeding with UV-irradiated OP50 bacteria. Worms were maintained at 20° C. and live worms were counted during transfer to freshly made SA-OP50-NGM agar plates every 2-3 days. Survival was scored as movement upon slight touch with the platinum wire. Worms were maintained until death.

A further data set concerns VC199 [sir-2.1(ok434)]. The data set can be described thus: Lipofuscin autofluorescence measurement, VC199. In kind it is in vivo, C. elegans. The following applies: increasing concentrations of SA, day 15; p=0.50. As for the experimental part: As with the N2 strain, the present inventors treated VC199 nematodes with increasing concentrations of SA and assessed the age-dependent accumulation of autofluorescent lipofuscin granules and decrease in pharyngeal pumping rate.
Synchronized late L4/early young adult worms were plated on FUDR containing SA-OP50-seeded NGM plates and worms were maintained at 20° C. Every fifth day, 10-15 worms were mounted onto 2% agar pads and anesthetized with 3 mM levamisole in DMSO. Images were taken at 250-ms exposure under a DAPI filter using an epifluorescence microscope (Nikon Eclipse 80i) equipped with a Lambda LS Xenon lamp (Sutter Instrument Company) and Nikon Plan Fluor 20× dry and Nikon Plan Apo 60×1.3 oil objectives. The fluorescence was calculated using ImageJ software.

Data set [3] deals with N2 WT C. elegans. Description: Pharyngeal pumping rate, N2. It counts as in vivo. Conditions: increasing concentrations of SA, measured every fifth day; p<0.05. The source says:
To quantify this, the present inventors chose both a biochemical endpoint (lipofuscin autofluorescence) and a behavioral measure (pharyngeal pumping) that change predictably with aging and are associated with healthspan. The accumulation in the nematode intestinal epithelium of autofluorescent lipofuscin granules, a heterogeneous mixture of oxidized and crosslinked lipids and proteins and advanced glycation end products, is a known conserved phenomenon observed to increase with age. Visualization of lipofuscin granules is often used as an age-related assessment of healthspan. Lipofuscin autofluorescence were quantified over time (every 5 days) in N2 adult nematodes (10-20 per colony) in the presence of increasing doses of SA. […] For a behavioral/functional measurement of health, pharyngeal pumping rates were quantified. […] Pharyngeal pumping rates quantified in WT N2 worms established on OP50-seeded NGM agar plates with increasing concentrations of SA. The frequency of pharyngeal pumping was measured and recorded every fifth day as the animals aged.
C. elegans pharyngeal pumping rate assays were performed on 60-mm agar plates with bacterial lawns at room temperature. […] The number of contractions in the terminal bulb of the pharynx was counted for 20 s and then plotted.

The conditions of data set [4]: compared with pyridoxamine (PM); cited from earlier work.
For data set [5] the following is noted: in vivo; cited from earlier work.
For data set [6] the following is noted: compared with pyridoxamine (PM); cited from earlier work. The source holds these as a separate data set.

Regarding `NCc1ccccc1O` [SA, salicylamine], the “mitochondrial oxygen consumption rate (OCR)” value in the data set with VC199 SIR-2.1 mutants was “no effect”. Also, the “occurrence in cell death” value in data set [1] is reported as 5%. The “increase in median lifespan” value was found to be 18% with N2 WT C. elegans [2] (50 μM SA); 32% with N2 WT C. elegans [2] (100 μM SA, p<0.05); 56% in the data set on N2 WT C. elegans [2] (500 μM SA, p<0.01). The median lifespan turned out to be 19 days in the data set on N2 WT C. elegans [2] (50 μM SA), 21 days in the data set with N2 WT C. elegans [2] (100 μM SA) and 25 days with N2 WT C. elegans [2] (500 μM SA). The accumulation of lipofuscin entry in the data set on VC199 [sir-2.1(ok434)] is “none of the doses of SA used were able to decrease the accumulation of lipofuscin”. For the same molecule, the “age-associated decline in pharyngeal pumping rate” value in the data set with N2 WT C. elegans [3] is recorded as “dose-dependent protection”. For the same molecule, in data set [4], the lipophilicity result is reported as “more lipophilic”. Besides, the oral bioavailability result in data set [5] is given as “orally bioavailable”. In data set [6], the “potency and selectivity for scavenging isoketals” value was “similarly potent and as selective as PM”.
